Source: US8691802B2, “Stabilized compositions comprising a therapeutically active agent and an oxidizing preservative” (Allergan, Inc., priority 2005, dated 2014)
Read-outs that look alike come from different tables or passages of the source.

Settings: for Stabilization of chlorine dioxide by the excipient (in words): proprietary brimonidine composition; for Stabilized Chlorine Dioxide Concentration: ingredient added to proprietary brimonidine composition
Protocol: Each of the excipients was added, in the amounts shown, to a proprietary composition comprising brimonidine as a therapeutically active agent.

NCCN [Ethylene diamine]
Stabilization of chlorine dioxide by the excipient (in words): do not stabilize

O=C([O-])C(=O)[O-].[Na+].[Na+] [Sodium Oxalate]
Stabilized Chlorine Dioxide Concentration (0 Days): 39 ppm | Stabilized Chlorine Dioxide Concentration (7 Days): 38 ppm | Stabilized Chlorine Dioxide Concentration (14 Days): 35 ppm | Stabilization of chlorine dioxide by the excipient (in words): similarly ineffective

CC(=O)C(=O)[O-].[Na+] [Sodium Pyruvate]
Stabilization of chlorine dioxide by the excipient (in words): similarly ineffective

O=C(O)CN(CCN(CC(=O)O)CC(=O)O)CC(=O)O [EDTA]
Stabilized Chlorine Dioxide Concentration (0 Days): 44 ppm | Stabilized Chlorine Dioxide Concentration (7 Days): 2 ppm | Stabilized Chlorine Dioxide Concentration (14 Days): 0 ppm | Stabilization of chlorine dioxide by the excipient (in words): do not stabilize

O=C([O-])/C(O)=C(\O)C(=O)[O-].[Na+].[Na+] [Sodium Dihydroxyfurmarate]
Stabilized Chlorine Dioxide Concentration (0 Days): 37 ppm | Stabilized Chlorine Dioxide Concentration (7 Days): 13 ppm | Stabilized Chlorine Dioxide Concentration (14 Days): 0 ppm

O=C[O-].[Na+] [Sodium Formate]
Stabilized Chlorine Dioxide Concentration (0 Days): 42 ppm | Stabilized Chlorine Dioxide Concentration (7 Days): 40 ppm | Stabilized Chlorine Dioxide Concentration (14 Days): 36 ppm

CC(O)C(=O)[O-].[Na+] (stereo not shown) [Sodium Lactate]
Stabilized Chlorine Dioxide Concentration (0 Days): 45 ppm | Stabilized Chlorine Dioxide Concentration (7 Days): 40 ppm | Stabilized Chlorine Dioxide Concentration (14 Days): 37 ppm
